Assay results published in PubChem BioAssay AID179 (DTP/NCI, 2004).
Where “and” joins values, the source holds several entries; their conditions need not be identical. Identical values can stand only once. Calls of active or inactive are those of the source.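 How the source made its calls: active means compounds giving half or more protection of infected cells from virus-caused growth loss, again on retest; inactive means the rest.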

Tested on: CEM cells HIV-1 protection, formazan growth assay
Test: NCI AIDS Antiviral Assay
Details: for IC50: measured here: growth of uninfected CEM cells
Outline: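 Steps: treat uninfected and HIV-1-infected human CEM cells at five drug levels; quantify growth by soluble formazan; retest any compound reaching 50% protection; classify actives from the retest.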

SMILES: COc1cccc(/C=N/[N-]C(N)=O)c1[O-].[Cu+2].[OH3+].c1cnc2c(c1)ccc1cccnc12
- EC50: > 39.8 µM
- IC50: 16.2 µM

SMILES: CC(/C=C/c1ncccc1OCCCCCC(=O)O)=N\NC1=NCCN1
- EC50: > 69.2 µM
- IC50: > 69.2 µM

SMILES: Cc1ccc(C(=O)/C=C/c2ccco2)cc1
- EC50: > 170 µM
- IC50: 53.7 µM

SMILES: C/C=C/C=Nc1c(C#N)c2n(c1C(=O)Nc1ccc(C)cc1)CCC2
- EC50: > 50.1 µM
- IC50: > 50.1 µM

SMILES: CC(=O)O[C@H]1CCc2c(cc(N)c3c2C(=O)C[C@]2(C)C([C@H](C)CCCC(C)C)CCC32C)C1(C)C (some centres undefined)
- EC50: > 200 µM
- IC50: > 200 µM

SMILES: O=[N+]([O-])/C(C(Cl)=C(Cl)Cl)=C(/Sc1ccccc1)N1CCCCC1
- EC50: > 195 µM
- IC50: 12.9 µM

SMILES: CC[C@](O)(CC(=O)O[C@H]1C(=O)O[C@@H]2C[C@H]3C(C)=CC(=O)[C@@H](O)[C@]3(C)[C@H]3[C@@]4(O)OC[C@]32[C@@H]1[C@@H](C)[C@H]4O)C(C)C
- EC50: > 0.2 µM
- IC50: 0.00363 µM

SMILES: CC(=O)c1c(-c2cccc3ccccc23)c(C#N)c(=S)n(C2OC(CO)C(O)C(O)C2O)c1-c1ccccc1 (centres undefined)
- EC50: > 200 µM
- IC50: 24 µM and > 200 µM

SMILES: Nc1nc(Cl)cc(OCC2CC(O)(CO)C2)n1 (centres undefined)
- EC50: > 200 µM
- IC50: > 200 µM

SMILES: O=C(O)C1C2C=CC(C(/C=C/c3ccccc3)N2)C1C(=O)O (centres undefined)
- EC50: > 200 µM
- IC50: > 200 µM

SMILES: COc1cc(C(=O)C/C(CCC(=O)Nc2ccccc2[N+](=O)[O-])=N\NC(=O)C(N)=O)ccc1O
- EC50: > 145 µM
- IC50: > 145 µM

SMILES: CC1CC(c2ccc([N+](=O)[O-])cc2)=Nc2ccccc2S1=O (centres undefined)
- EC50: > 12 µM
- IC50: > 12 µM

SMILES: C=CCCCCOCOCCOC
- EC50: > 138 µM
- IC50: > 138 µM

SMILES: O=[N+]([O-])c1cc(Cl)cc2cc(Br)cnc12
- EC50: > 200 µM
- IC50: > 200 µM

SMILES: COc1ccc(C2CC(c3ccccc3)=Nc3ccccc3S2)cc1 (centres undefined)
- EC50: > 51.3 µM
- IC50: 27.5 µM

SMILES: COc1ccccc1NC(=S)N/C=C(\C#N)c1nc2ccccc2s1
- EC50: > 200 µM
- IC50: 117 µM

SMILES: Clc1ncccc1SSc1cccnc1Cl
- EC50: > 200 µM
- IC50: 89.1 µM

SMILES: CCCCCCCCCCCCCCCC(=O)OCC(O)CO (centres undefined)
- EC50: > 15.8 µM
- IC50: > 15.8 µM

SMILES: COC(=O)c1ccc(/C=C2\Cc3ccccc3C2=O)cc1
- EC50: > 200 µM
- IC50: > 200 µM

SMILES: S=c1n(-c2ccc(Cl)cc2)c2nc3ccccc3nc(/c2=N\Nc2ccccc2)n1-c1ccc(Br)cc1
- EC50: > 61.7 µM
- IC50: 31.6 µM

SMILES: CC(=O)OCC1(C)ON=C2CCCCC21 (centres undefined)
- EC50: > 1170 µM
- IC50: > 1170 µM

SMILES: COc1ccc2c(c1)OCCN(C)OC2c1ccccc1 (centres undefined)
- EC50: > 200 µM
- IC50: > 200 µM

SMILES: C/C(CC(=O)N(C(C)C)C(C)C)=N\NC(=O)c1ccncc1
- EC50: > 61.7 µM
- IC50: > 61.7 µM

SMILES: CNC(=O)OCCN1c2ccccc2Sc2ccccc21
- EC50: > 200 µM
- IC50: 77.6 µM

SMILES: C=C(C)P(=O)(OC(C)CCl)OC(C)CCl (centres undefined)
- EC50: > 200 µM
- IC50: > 200 µM

SMILES: CCOC(=O)c1c(-c2ccc(OC)c(O)c2)c(C#N)c(=S)n(C2OC(COC(C)=O)C(OC(C)=O)C(OC(C)=O)C2OC(C)=O)c1-c1ccccc1 (centres undefined)
- EC50: > 200 µM
- IC50: 102 µM and 56.2 µM

SMILES: CCOC(=O)C(CC/C=C\c1ccccc1)N1CCC[C@H]1C(=O)OC (some centres undefined)
- outcome: inactive

SMILES: O=S1(=O)OCCOS(=O)(=O)C1(I)I
- EC50: > 550 µM
- IC50: 123 µM

SMILES: Nc1nc(Cl)cc(NCC2(CO)CC=CC2)n1
- EC50: > 200 µM
- IC50: > 200 µM

SMILES: COc1ccc(OC)c(NC(=O)CCC/C(CC(=O)c2ccc(O)c(OC)c2)=N\NC(=O)C[N+](C)(C)C)c1
- EC50: > 6.61 µM
- IC50: > 6.61 µM

SMILES: Cc1ccccc1NC(=O)CC(=O)NNCC(=O)Nc1nnc(-c2ccccc2)s1
- EC50: > 61.7 µM
- IC50: 46.8 µM

SMILES: CN(C)C(=S)/N=c1\sn(C)/c(=N\C(=S)N(C)C)n1C
- outcome: inactive

SMILES: CC1(C)COC(=O)N1
- EC50: > 1550 µM
- IC50: > 1550 µM

SMILES: CC1(C)C2CC1C(/C=N\OCC(=O)O)=CC2=O (centres undefined)
- EC50: > 200 µM
- IC50: > 200 µM

SMILES: CCOC(=O)Nc1cc2c(c(N)n1)N=C(c1ccc(Cl)cc1Cl)CN2
- EC50: > 10 µM
- IC50: 0.017 µM

SMILES: O=C(Nc1ccc(S(=O)(=O)c2ccc(NC(=O)c3ccc(N=Nc4cc(S(=O)(=O)O)c5cccnc5c4O)cc3S(=O)(=O)O)cc2)cc1)c1ccc(N=Nc2cc(S(=O)(=O)O)c3cccnc3c2O)cc1S(=O)(=O)O
- EC50: 3.8 µM
- IC50: 93.3 µM

SMILES: CCOC(=O)C(NC(=O)CC(C)C)(NC(C)C)C(F)(F)F (centres undefined)
- EC50: > 200 µM
- IC50: > 200 µM

SMILES: COC(=O)c1c/c(=N\NC(=O)CC(=O)Nc2ccccc2OC)c2ccccc2o1
- EC50: > 229 µM
- IC50: > 229 µM

SMILES: C#CCOC(=O)[C@@H](C)c1ccc2cc(OC)ccc2c1
- EC50: > 200 µM
- IC50: 47.9 µM

SMILES: CC1(C)CC23CC(C)(C)c4cccc(c42)OCc2ccc4ccc5ccc(nc5c4n2)COc2cccc1c23
- EC50: > 50.1 µM
- IC50: > 50.1 µM

SMILES: CC(=O)N1C(=O)C(=O)c2cc(Cl)ccc21
- outcome: inactive

SMILES: O=C(O)C1CCC(c2ccc(Cl)cc2)N1 (centres undefined)
- EC50: > 200 µM
- IC50: > 200 µM

SMILES: Clc1cc(Cl)c(OCC#CI)cc1Cl
- EC50: > 200 µM
- IC50: 6.92 µM

SMILES: O=S(=O)(O)CCO
- EC50: > 200 µM
- IC50: > 200 µM

SMILES: COc1ccc(NC2=CC(C)(C(=O)O)OC2=O)cc1 (centres undefined)
- EC50: > 200 µM
- IC50: > 200 µM

SMILES: Cn1nc(NC(=O)c2cc(N)nn2C)cc1C(=O)Nc1ccc2cc(S(=O)(=O)O)cc(S(=O)(=O)O)c2c1
- EC50: > 200 µM
- IC50: > 200 µM

SMILES: CN(C)c1ccc(/C=C(\C#N)c2ccc(Br)cc2Br)cc1
- EC50: > 200 µM
- IC50: 3.39 µM

SMILES: O=C(NNc1nc2ccc(Cl)cc2s1)c1cnc2n(c1=O)CCS2
- EC50: > 200 µM
- IC50: 102 µM

SMILES: Cc1cc(O)c2c3c1C(=O)Oc1c(CO)c(O)c(C(=O)O)c(c1O3)C=NN=Cc1c3c(c(CO)c(O)c1C(=O)O)OC(=O)c1c(C)cc(O)c(c1O3)C=NN=C2
- outcome: inactive

SMILES: CC(C)(C)c1ccc(OC(=O)Nc2ccc(O)c(C(=O)O)c2)cc1
- EC50: > 200 µM
- IC50: > 200 µM

SMILES: CCOc1cc2c[n+](C)c3c4cc(OC)c(OC)cc4ccc3c2cc1OC
- EC50: > 33.1 µM
- IC50: > 33.1 µM

SMILES: CC(C)N(C(=O)C12C3C4C1C1C2C3C41C#N)C(C)C (centres undefined)
- EC50: > 513 µM
- IC50: > 513 µM

SMILES: CN1CC=C(C#CC(C)(C)O)CC1
- EC50: > 200 µM
- IC50: > 200 µM

SMILES: CC(=O)/C=C/CCC(=O)/C=C/C(=O)OC(CCC(=O)/C=C/C(=O)O)CC(C)=O (centres undefined)
- EC50: > 200 µM
- IC50: 115 µM

SMILES: COc1c(C(=O)/C(=N/Nc2ccccc2)C(C)=O)c(O)c(OC)c2occc12
- EC50: > 200 µM
- IC50: 38 µM

SMILES: C/C(=N\N=C(/[O-])c1ccccc1)c1cccc(/C(C)=N/N=C(\[O-])c2ccccc2)n1.O.[Cu+2]
- EC50: > 100 µM
- IC50: 18.2 µM

SMILES: O=C(O)c1c(CC(Cc2ccc3c(c2)CCCC3)C(=O)O)ccc2c1CCCC2 (centres undefined)
- EC50: > 200 µM
- IC50: 141 µM

SMILES: [NH-]CC[NH-].[NH-]CC[NH-].[NH-]CC[NH-].[Ni+2].[O-][Cl+3]([O-])([O-])O
- EC50: > 200 µM
- IC50: 77.6 µM

SMILES: CC(C)=CCN1c2ccc(Cl)cc2NC(=O)CC1C (centres undefined)
- EC50: > 87.1 µM
- IC50: 49 µM

SMILES: Cc1cc(C)c2cc(N)c(Cl)nc2n1
- EC50: > 200 µM
- IC50: 145 µM

SMILES: COc1cc2c3c(c1OC)C1(C=CC(=O)C=C1)CC3N(C(C)=O)CC2 (centres undefined)
- outcome: inactive

SMILES: C/C1=C\[C@@H](O)C(=O)/C=C/C=C\c2csc(n2)[C@@H](C)NC(=O)C[C@@]2(CC1)S(=O)SC(=O)[C@]2(C)O (some centres undefined)
- EC50: > 1.32 µM
- IC50: 0.0055 µM
